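Briefly, cells in 96-well plates were exposed to five compound concentrations for 48 h, and endpoints were estimated by linear interpolation. Here, GI50 denotes the concentration required for 50% inhibition of growth. At the TGI there is no net growth.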
Tests used:
Experiment in all cases: DTP human tumour cell line panel, 48 h
U251 CNS = test system: U251 CNS
LOX IMVI melanoma = test system: LOX IMVI melanoma
HCC-2998 colon = test system: HCC-2998 colon
SN12C renal = test system: SN12C renal
NCI-H460 lung = test system: NCI-H460 lung
SF-539 CNS = test system: SF-539 CNS
HOP-92 NSCLC = test system: HOP-92 NSCLC
SK-MEL-5 melanoma = test system: SK-MEL-5 melanoma
UO-31 renal = test system: UO-31 renal
HCT-15 colon = test system: HCT-15 colon

| Structure (SMILES) | TGI (U251 CNS) [µM] | TGI (LOX IMVI melanoma) [µM] | TGI (HCC-2998 colon) [µM] | TGI (SN12C renal) [µM] | TGI (NCI-H460 lung) [µM] | TGI (SF-539 CNS) [µM] | TGI (HOP-92 NSCLC) [µM] | TGI (SK-MEL-5 melanoma) [µM] | TGI (UO-31 renal) [µM] | TGI (HCT-15 colon) [µM] | GI50 (U251 CNS) [µM] | GI50 (LOX IMVI melanoma) [µM] | GI50 (SN12C renal) [µM] | GI50 (NCI-H460 lung) [µM] | GI50 (SF-539 CNS) [µM] | GI50 (HOP-92 NSCLC) [µM] | GI50 (SK-MEL-5 melanoma) [µM] | GI50 (UO-31 renal) [µM] | GI50 (HCT-15 colon) [µM] | GI50 (HCC-2998 colon) [µM] |
| --- | --- | --- | --- | --- | --- | --- | --- | --- | --- | --- | --- | --- | --- | --- | --- | --- | --- | --- | --- | --- |
| O=C(c1ccccc1)c1cccc(C(=O)c2ccccc2)c1 | > 100 | > 100 | > 100 | > 100 | > 100 | > 100 | > 100 | > 100 | > 100 | – | – | – | – | – | – | – | – | – | – | – |
| C=C1C(=O)OC2/C=C(/C)C(OC(C)=O)CC(O)/C(C)=C\C(OC(=O)/C(C)=C\C)C12 (stereo not drawn) | > 100 | > 100 | > 100 | > 100 | > 100 | > 100 | > 100 | > 100 | – | > 100 | – | – | – | – | – | – | – | – | – | – |
| CC1(C)C2C=CC1(C)C1(CC2)OCCO1 (stereo not drawn) | > 100 | > 100 | > 100 | > 100 | > 100 | > 100 | – | – | > 100 | > 100 | – | – | – | – | – | – | – | – | – | – |
| COc1ccc(C2=NN(c3ccccc3)C[N+](c3ccc(OC)cc3)=N2)cc1 | 49.8 | 61.9 | > 100 | > 100 | > 100 | – | – | 29.8 | 71.1 | > 100 | – | – | – | – | – | – | – | – | – | – |
| Cc1ccc(Nc2nc(C)c(C(/C=C/c3ccc(/C=C/C(=N/NC(=O)C[n+]4ccccc4)c4sc(Nc5ccc(C)cc5[N+](=O)[O-])nc4C)cc3)=N\NC(=O)C[n+]3ccccc3)s2)c([N+](=O)[O-])c1 | > 100 | > 100 | > 100 | > 100 | > 100 | > 100 | – | – | > 100 | > 100 | – | – | – | – | – | – | – | – | – | – |
| C[CH2][Sn]([CH2]C)([O]C(=O)C(OC(C)=O)c1ccccc1)[O]C(=O)C(OC(C)=O)c1ccccc1 (stereo not drawn) | > 100 | 35.4 | – | > 100 | > 100 | 33 | 34.9 | > 100 | 43.4 | 82.3 | 37.6 | 18.2 | > 100 | > 100 | 17.5 | 18.6 | 68.1 | 19.5 | 25.7 | – |
| C=C1c2[nH]c3c([N+](=O)[O-])c(OC)ccc3c2CCN1C(C)=O | > 100 | > 100 | > 100 | > 100 | > 100 | > 100 | – | – | > 100 | > 100 | – | – | – | – | – | – | – | – | – | – |
| C=C(CO[Si](C)(C)C(C)(C)C)C(C)=O | > 100 | 24.7 | 57.3 | > 68.5 | > 100 | > 62.2 | – | 28.4 | > 66 | 77.6 | – | – | – | – | – | – | – | – | – | – |
| CN(C(=O)c1ccco1)C(=S)N1CCN(c2ccccc2)CC1 | > 100 | > 100 | – | > 100 | > 100 | > 100 | > 100 | > 100 | > 100 | > 100 | – | – | – | – | – | – | – | – | – | – |
| COC(=O)C1=CC2C(=O)OC1CC2C#N (stereo not drawn) | > 100 | > 100 | > 100 | > 100 | > 100 | > 100 | > 100 | > 100 | > 100 | – | – | – | – | – | – | – | – | – | – | – |
| CC#CC(=O)SCCNC(=O)CC | > 10 | > 10 | > 10 | > 10 | > 10 | > 10 | – | > 10 | > 10 | > 10 | – | – | – | – | – | – | – | – | – | – |
| C/C=C(/C)C(=O)O[C@H](C[C@@H](C)[C@H]1CC(c2ccoc2)OC1=O)[C@@]1(C)C(=O)CCC2O[C@]21C (stereo partly drawn) | > 100 | > 100 | > 100 | – | > 100 | > 100 | – | > 100 | > 100 | > 100 | – | – | – | – | – | – | – | – | – | – |
| O=C1CC(S(=O)(=O)O)C=C1Nc1cccc(Cl)c1 (stereo not drawn) | > 100 | > 100 | > 100 | > 100 | > 100 | > 100 | > 100 | > 100 | > 100 | – | – | – | – | – | – | – | – | – | – | – |
| COc1ccc2ccccc2c1C1OC(=O)c2ccccc21 (stereo not drawn) | > 100 | > 100 | > 100 | > 100 | – | > 100 | > 100 | > 100 | > 100 | > 100 | – | – | – | – | – | – | – | – | – | – |
| CCCOC(=O)N1CCN(/[N+]([O-])=N/Oc2ccc([N+](=O)[O-])cc2[N+](=O)[O-])CC1 | 3.96 | 1.08 | – | 6.94 | 8.82 | 0.648 | – | 7.53 | 48.9 | 5.65 | 2.03 | 0.32 | 2.58 | 2.54 | 0.273 | – | 2.35 | 3.5 | 2.2 | – |
| O=C(Nc1ccc(Cl)c(Cl)c1)O/N=C\c1c(Cl)ccc([N+](=O)[O-])c1Cl | 3.14 | 2.76 | – | 8.52 | 7.68 | 8.36 | – | 8.59 | 2.88 | 3.48 | 1.68 | 1.24 | 2.59 | 2.63 | 2.64 | – | 2.38 | 1.45 | 1.2 | – |
| O=CC1CCCc2ccccc21 (stereo not drawn) | > 59.4 | > 62.4 | > 100 | > 100 | > 100 | – | > 100 | > 100 | > 100 | > 91.6 | – | – | – | – | – | – | – | – | – | – |
| COc1ccc(C(C#N)Cc2cc(OC)c(OC)c(OC)c2)cc1 (stereo not drawn) | > 100 | > 100 | – | > 100 | > 100 | > 100 | > 100 | 37.3 | > 100 | > 100 | – | – | – | – | – | – | – | – | – | – |
| NC(=O)c1c(NC(=O)c2ccc3c(c2)OCO3)sc2c1CCC(=O)C2 | > 100 | > 100 | > 100 | > 100 | – | – | 5.91 | 3.17 | – | – | 0.467 | 1.15 | 3.03 | – | – | 1.65 | 1.77 | – | – | 3.45 |
| Cc1ccccc1NC(=O)C(=O)CC(=O)c1c(C)n([O-])c2ccccc2[n+]1=O | > 100 | – | > 100 | > 100 | > 100 | > 100 | – | – | > 100 | > 100 | – | – | – | – | – | – | – | – | – | – |
| O=c1c2ccccc2nc(-c2ccccc2)n1NC1OC(CO)C(O)C(O)C1O (stereo not drawn) | > 100 | – | > 100 | > 100 | > 100 | > 100 | > 100 | > 100 | > 100 | > 100 | – | – | – | – | – | – | – | – | – | – |

Reference: PubChem BioAssay (NCI)
